The results in this text go back to ChEMBL document CHEMBL4190294, “Design, synthesis and antiproliferative activity of decarbonyl luotonin analogues” (Eur J Med Chem, 2017).

Activity calls are given as the source filed them. The calls are words filed in the database; no cut-off is given here. A value given as a limit tells only on which side of the number the result lay.

For one assay, the system named is LNCaP. Description: Cytotoxicity against human LNCAP cells assessed as reduction in cell viability after 72 hrs by MTT assay. In kind it is functional, cell-based. Background: Tetrazolium dyes change colour on reduction, which living cells bring about.
In another assay the test system is HT-1080. Description: Cytotoxicity against human HT1080 cells assessed as reduction in cell viability after 72 hrs by MTT assay. In kind it is functional, cell-based. As to conditions: HT-1080, 72 h.
Assay [1] concerns KB. Description: Cytotoxicity against human KB cells assessed as reduction in cell viability at 12.5 uM after 72 hrs by MTT assay. In kind it is functional, cell-based.
The next assay relates to MDA-MB-231. Description: Cytotoxicity against human MDA-MB-231 cells assessed as reduction in cell viability after 72 hrs by MTT assay. Format: functional, cell-based. As to conditions: MDA-MB-231, 72 h.
Assay [2] relates to KB. Description: Cytotoxicity against human KB cells assessed as reduction in cell viability after 72 hrs by MTT assay. Format: functional, cell-based.
The target of assay [3] is T1, DNA topoisomerase 1 (Homo sapiens) (UniProt P11387).
T1 sequence (whole entry): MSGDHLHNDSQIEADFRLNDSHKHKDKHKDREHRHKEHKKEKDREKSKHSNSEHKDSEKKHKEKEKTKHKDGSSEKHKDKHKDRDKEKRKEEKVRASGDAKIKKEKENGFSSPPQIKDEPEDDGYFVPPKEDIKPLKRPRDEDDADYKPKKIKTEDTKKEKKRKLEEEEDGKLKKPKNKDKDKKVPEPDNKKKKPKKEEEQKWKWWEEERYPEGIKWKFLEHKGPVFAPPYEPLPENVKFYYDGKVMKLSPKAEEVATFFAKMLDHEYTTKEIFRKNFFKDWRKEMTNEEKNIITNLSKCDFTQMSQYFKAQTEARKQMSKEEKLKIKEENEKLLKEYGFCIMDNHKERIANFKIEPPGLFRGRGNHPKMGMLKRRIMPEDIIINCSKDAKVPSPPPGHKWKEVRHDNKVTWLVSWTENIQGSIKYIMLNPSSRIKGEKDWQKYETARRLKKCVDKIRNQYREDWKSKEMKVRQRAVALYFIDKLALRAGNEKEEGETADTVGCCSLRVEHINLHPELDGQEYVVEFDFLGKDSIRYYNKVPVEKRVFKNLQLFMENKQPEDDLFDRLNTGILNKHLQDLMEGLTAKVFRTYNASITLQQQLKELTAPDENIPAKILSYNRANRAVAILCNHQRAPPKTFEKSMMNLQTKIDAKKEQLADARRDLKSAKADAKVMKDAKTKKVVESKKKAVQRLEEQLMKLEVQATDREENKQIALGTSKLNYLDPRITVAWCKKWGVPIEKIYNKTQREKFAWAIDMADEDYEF
Description: Inhibition of human topoisomerase-1 expressed in baculovirus infected insect cells at 80 uM using supercoiled pGEM-5Zf(+) plasmid DNA as substrate after 30 mins by agarose gel electrophoresis method.

For orientation: IC50 means the point on the concentration scale where inhibition reaches its midpoint. `Clc1cccc2cc3c(nc12)-c1nc2ccccc2n1C3`: the IC50 is 24 µM in the assay on LNCaP, 28.7 µM in the assay with HT-1080, 69 µM in the assay with MDA-MB-231 and 11.5 µM in the assay on KB [2]. For the same compound, in the assay with KB [1], the result was Active.

On to `Cc1cccc2cc3c(nc12)-c1nc2ccccc2n1C3`, for which the IC50 with LNCaP was 23.8 µM; with HT-1080 it was more than 100 µM; in the assay with MDA-MB-231, more than 100 µM; with KB [2] it was 20 µM. Also, in assay [3], the inhibition result is “Active”.

Turning to `COc1ccc2nc3c(cc2c1)Cn1c-3nc2ccccc21`, the IC50 in the assay on LNCaP was 24.7 µM; with HT-1080, 52.3 µM; in the assay with MDA-MB-231, more than 100 µM; in the assay on KB [2], 20 µM. Besides, the inhibition entry in assay [3] was “Active”.

`COc1ccc2cc3c(nc2c1)-c1nc2ccccc2n1C3`: the IC50 is 25 µM in the assay on LNCaP, 95 µM in the assay on HT-1080, more than 100 µM with MDA-MB-231 and 40.6 µM in the assay with KB [2]. Besides, the inhibition result in assay [3] was “Active”.

In the case of `Cc1ccc2nc3c(cc2c1)Cn1c-3nc2ccccc21`, the IC50 in the assay on LNCaP is 62.5 µM; with HT-1080 it was 9.3 µM; in the assay on MDA-MB-231 it was more than 100 µM; in the assay on KB [2], 11.3 µM. Moreover, the inhibition result in assay [3] was “Active”.

For `c1ccc2nc3c(cc2c1)Cn1c-3nc2ccccc21`, the IC50 in the assay on LNCaP turned out to be 11.3 µM; in the assay with HT-1080, 52.9 µM; in the assay with MDA-MB-231, 12 µM; in the assay with KB [2], 10.9 µM. For the same compound, the inhibition result in assay [3] is “Active”.

On to `Brc1cccc2cc3c(nc12)-c1nc2ccccc2n1C3`, for which the IC50 stood at 8.4 µM in the assay on LNCaP, 66 µM in the assay with HT-1080, 11.3 µM in the assay on MDA-MB-231 and 15.3 µM in the assay with KB [2]. The inhibition result in assay [3] was “Active”.

For the compound `O=c1c2ccccc2nc2n1Cc1cc3ccccc3nc1-2`, the outcome in the assay on KB [1] was Active.

As to `Cc1ccc2cc3c(nc2c1)-c1nc2ccccc2n1C3`, the IC50 in the assay with LNCaP is 39 µM; with HT-1080 it was 8.7 µM; in the assay with MDA-MB-231, more than 100 µM; in the assay with KB [2], 75 µM. In assay [3], the inhibition entry was “Active”.

On to `COc1cccc2cc3c(nc12)-c1nc2ccccc2n1C3`, for which the IC50 with LNCaP is 20 µM; with HT-1080 it was more than 100 µM; in the assay with MDA-MB-231, more than 100 µM; in the assay on KB [2] it was 16.9 µM. In addition, in assay [3], the inhibition entry is “Active”.
